Each structure is given as a SMILES string. pKi: −log10 of the molar value.

For one assay, the system named is Caco-2. Put plainly: Papp in Caco-2 permeability assay. Particulars: Homo sapiens. It counts as functional, cell-based. A general note: Caco-2 monolayers are a common model of the intestinal barrier.
Consider `COC(=O)c1c(O)cccc1OCCCCNC(=O)[C@H](Cc1ccc(NC(=O)C(=O)O)cc1)NC(=O)OC(C)(C)C`, for which the apparent permeability (Papp) was less than 1 ×10⁻⁶ cm/s. Same read-out and setting: the value for `CCc1cc(CC(NC(C)=O)C(=O)NCCCCOc2cccc(O)c2C(=O)OC)ccc1N(C(=O)C(=O)O)c1ccccc1C(=O)O` (stereo not given) was less than 1 ×10⁻⁶ cm/s; that for `COC(=O)c1c(O)cccc1OCCCCNC(=O)[C@H](Cc1ccc(OCC(=O)O)cc1)NC(=O)OC(C)(C)C` was 10 ×10⁻⁶ cm/s; that for `COC(=O)c1c(O)cccc1OCCCCNC(=O)[C@H](Cc1ccc(OCC(=O)O)c(O)c1)NC(C)=O` was greater than 10 ×10⁻⁶ cm/s.

The target in another assay is T1, Tyrosine-protein phosphatase non-receptor type 1 (Homo sapiens, UniProt P18031).
T1 sequence (P18031 whole entry): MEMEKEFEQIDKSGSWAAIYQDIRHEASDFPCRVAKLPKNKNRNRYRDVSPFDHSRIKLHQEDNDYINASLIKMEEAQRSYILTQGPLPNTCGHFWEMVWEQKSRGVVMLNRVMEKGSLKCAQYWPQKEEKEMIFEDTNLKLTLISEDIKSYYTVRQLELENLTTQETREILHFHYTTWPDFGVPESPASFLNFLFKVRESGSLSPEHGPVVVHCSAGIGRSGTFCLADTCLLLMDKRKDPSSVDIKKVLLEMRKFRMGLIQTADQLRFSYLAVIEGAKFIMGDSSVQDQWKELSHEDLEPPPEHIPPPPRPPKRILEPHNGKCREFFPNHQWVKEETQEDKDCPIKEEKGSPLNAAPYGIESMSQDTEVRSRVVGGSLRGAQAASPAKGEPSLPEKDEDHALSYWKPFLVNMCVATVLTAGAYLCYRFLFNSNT
Put plainly: Inhibition of Protein-tyrosine phosphatase 1B.
Conditions: not given
`COC(=O)c1c(O)cccc1OCCCCNC(=O)[C@H](Cc1ccc(NCC(=O)O)cc1)NC(=O)OC(C)(C)C` gave a pKi of less than 3.70. On the same count and under the same terms, the value for `COC(=O)c1c(O)cccc1OCCCCNC(=O)[C@H](Cc1ccc(NC(=O)C(=O)O)cc1)NC(C)=O` was 5.21; that for `COC(=O)c1c(O)cccc1OCCCCNC(=O)[C@H](Cc1ccc(NC(=O)C(F)(F)F)cc1)NC(C)=O` was less than 3.70; that for `COC(=O)c1c(O)cccc1OCCCCNC(=O)[C@H](Cc1ccc(NS(=O)(=O)C(F)(F)F)cc1)NC(C)=O` was less than 3.70. On the same count and under the same terms, the result for `COC(=O)c1c(O)cccc1OCCCCNC(=O)[C@H](Cc1ccc(/C=C\C(=O)O)cc1)NC(=O)OC(C)(C)C` reads less than 3.70; that for `COC(=O)c1c(O)cccc1OCCCCNC(=O)[C@H](Cc1ccc(NC(=O)c2ncccc2O)cc1)NC(C)=O`, less than 3.70. The same measure, in the same setting: the result for `COC(=O)c1c(O)cccc1OCCCCNC(=O)[C@H](Cc1ccc(OCC(=O)O)c(N)c1)NC(C)=O` reads less than 3.70; that for `COC(=O)c1c(O)cccc1OCCCCNC(=O)[C@H](Cc1ccc(OCC(=O)O)c(C(=O)O)c1)NC(C)=O`, 5.66. Compound `CCCCC(C)NC(=O)[C@H](Cc1ccc(OCC(=O)O)c(C2N=NN=N2)c1)NC(=O)[C@H](Cc1ccccc1)NC(=O)OC(C)(C)C` (stereo not given in full) gave a pKi of 5.70. Same read-out and setting: the value for `COC(=O)c1c(O)cccc1OCCCCNC(=O)[C@H](Cc1ccc(OC(CO)C(=O)O)cc1)NC(=O)OC(C)(C)C` (stereo not given in full) was less than 3.70; that for `COC(=O)c1c(O)cccc1OCCCCNC(=O)[C@H](Cc1ccc(NC(=O)CO)cc1)NC(C)=O` was less than 3.70.

As usually defined, the Papp is a coefficient for how fast a substance crosses the barrier. Lower therefore signals poor permeation. For orientation: pKi means the negative decadic logarithm of the Ki, by convention in mol/L. Read a high pKi as a small Ki.

Source of the values: ChEMBL document CHEMBL1136349, “Identification of a monoacid-based, cell permeable, selective inhibitor of protein tyrosine phosphatase 1B” (Bioorg Med Chem Lett, 2003).
